Measurements taken from patent US9540380B2, “Imidazotriazinone compounds” (Ironwood Pharmaceuticals, Inc., priority 2010, dated 2017).
pIC50: −log10 of the molar value.

Tests used:
PDE1A = target: T1, PDE1A (Homo sapiens, UniProt P54750); test: Phosphodiesterase Enzyme Screening Assay, PDE1A (selectivity versus PDE9A2); format: biochemical; details: ratio of IC50 values; value greater than 1 indicates greater selectivity for PDE9A2
T1 construct: purchased Reaction Biology Corporation, Malvern, Pa
Text: (§1) Compounds of the invention were screened against PDE1A, PDE1B, PDE2A, PDE3A, PDE3B, PDE4A1A, PDE4B1, PDE4D3, PDE5A1, PDE6C, PDE7A, PDE8A1, PDE9A2, PDE10A2 AND PDE11A isoforms of the phosphodiesterase enzyme to determine activity and overall selectivity through comparative analysis. The assay generally consists of testing the compounds of the invention at 10 concentrations. Where 8-methoxy-IBMX and Zaprinast were used as reference inhibitors.
(§2) The phosphodiesterase enzyme isoforms were obtained from a commercial retailer (Reaction Biology Corporation, Malvern, Pa.) for use in the instant screening assay.
(§3) The analysis was completed using the Caliper LabChip 3000 and a 12-sipper LabChip. LabChip assays are separations-based, meaning that the product and substrate are electrophoretically separated, thereby minimizing interferences and yielding the highest data quality available on any screening platform. Z′ factors for both the EZ Reader and LC3000 enzymatic assays are routinely in the 0.8 to 0.9 range. High Z′ values, few false positives, few false negatives and analytical quality reproducibility are the reasons cited for the increasing reliance on the LabChip assays.
(§4) The off-chip incubation mobility-shift phosphodiesterase assay uses a microfluidic chip to measure the conversion of a fluorescent cyclic AMP substrate to a 5′-AMP product, or a cyclic GMP substrate to a 5′-GMP product. The reaction mixture, from a microtiter plate well, is introduced through a capillary sipper onto the chip, where the fluorescent substrate and product are separated by electrophoresis and detected via laser-induced fluorescence. […] The precision of microfluidics allows researchers to detect subtle interactions between drug candidates and therapeutic targets. The technology is able to detect both strong and weak inhibitors with high accuracy, and routinely identifies drug candidates that conventional techniques miss.
(§5) Reactions were carried out in 100 mM HEPES (pH 7.5), 5 mM MgCl2, 1 mM DTT, 0.003% Brij, 4.0 μM cGMP substrate. The reaction was started by addition of cGMP or cAMP and incubated for 1 hour at R.T. The reaction was terminated by the addition of stop buffer containing 100 mM HEPES (pH 7.5), 15 mM EDTA, 0.015% Brij-35, 5% DMSO. Cyclic AMP/GMP substrate and 5′-AMP/5′-GMP product were separated by charge using electrophoretic mobility shift. Product formed was compared to control wells to determine inhibition or enhancement of enzyme activity.
(§6) One or more reference compounds, depending on phosphodiesterase isoform, selected from 8-methoxy-IBMX, Zaprinast, Trequinsin, Pentoxifyline, Rolipram, and Vinpocetine, Dipyridamole, and BRL-50481 were run alongside client samples to ensure data quality. The resulting IC50 is compared against the historical average and must be within 3-fold of this average.
(§7) Data points were averages of quadruplicate wells and error bars represented the SEM for each point. IC50s were determined using GraphPad Prism Version 5.01 and the log (inhibitor) vs. response variable slope curve fit.

PDE1B = target: T2, PDE1B (Homo sapiens, UniProt Q01064); test: Phosphodiesterase Enzyme Screening Assay, PDE1B (selectivity versus PDE9A2); format: biochemical; details: ratio of IC50 values; value greater than 1 indicates greater selectivity for PDE9A2
T2 construct: purchased Reaction Biology Corporation, Malvern, Pa
Text: as §1, §2, §3, §4, §5, §6, §7

PDE9A2 = target: T3, PDE9A2 (Homo sapiens, UniProt O76083); test: Phosphodiesterase Enzyme Screening Assay, PDE9A2 (Caliper LabChip mobility-shift); format: biochemical; details: 10 concentrations, 4.0 μM cGMP substrate, 1 hour at R.T.; read-out: Band (PDE9A2 IC50)
T3 construct: purchased Reaction Biology Corporation, Malvern, Pa
Text: as §1, §2, §3, §4, §5, §6, §7

PDE9 = PDE9 (Homo sapiens, UniProt O76083); details: PDE9 affinity for cGMP; cited from earlier work
Sequence of PDE9 (O76083 whole entry): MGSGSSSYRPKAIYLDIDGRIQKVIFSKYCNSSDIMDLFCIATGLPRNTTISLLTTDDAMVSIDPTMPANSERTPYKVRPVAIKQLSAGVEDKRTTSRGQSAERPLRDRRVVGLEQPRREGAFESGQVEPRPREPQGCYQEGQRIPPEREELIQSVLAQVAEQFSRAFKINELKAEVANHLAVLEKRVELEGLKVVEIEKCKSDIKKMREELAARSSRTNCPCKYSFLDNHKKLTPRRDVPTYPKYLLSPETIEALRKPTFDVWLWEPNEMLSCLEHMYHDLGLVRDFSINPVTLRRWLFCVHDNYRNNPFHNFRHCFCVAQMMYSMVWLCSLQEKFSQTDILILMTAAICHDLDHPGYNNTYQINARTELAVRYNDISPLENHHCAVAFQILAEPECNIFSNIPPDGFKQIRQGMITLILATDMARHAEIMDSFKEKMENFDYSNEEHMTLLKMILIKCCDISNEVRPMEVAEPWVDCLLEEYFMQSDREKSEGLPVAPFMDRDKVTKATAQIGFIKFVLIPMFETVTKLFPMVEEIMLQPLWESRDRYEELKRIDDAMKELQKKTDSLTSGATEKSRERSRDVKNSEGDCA

T2 sequence (Q01064 whole entry): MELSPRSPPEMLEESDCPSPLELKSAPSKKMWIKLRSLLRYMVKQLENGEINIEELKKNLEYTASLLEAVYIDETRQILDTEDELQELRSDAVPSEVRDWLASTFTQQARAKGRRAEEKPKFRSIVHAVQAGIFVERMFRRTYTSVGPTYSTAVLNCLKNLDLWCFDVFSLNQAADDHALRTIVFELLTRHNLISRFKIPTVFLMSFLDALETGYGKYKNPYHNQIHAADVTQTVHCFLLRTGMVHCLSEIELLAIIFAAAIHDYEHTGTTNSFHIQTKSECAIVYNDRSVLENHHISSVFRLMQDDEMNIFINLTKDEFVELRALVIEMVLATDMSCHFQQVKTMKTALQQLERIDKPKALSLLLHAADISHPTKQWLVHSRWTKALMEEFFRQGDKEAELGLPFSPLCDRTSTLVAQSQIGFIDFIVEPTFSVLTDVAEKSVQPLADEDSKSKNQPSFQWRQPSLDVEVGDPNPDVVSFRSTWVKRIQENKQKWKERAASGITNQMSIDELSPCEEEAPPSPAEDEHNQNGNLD
T1 sequence (P54750 whole entry): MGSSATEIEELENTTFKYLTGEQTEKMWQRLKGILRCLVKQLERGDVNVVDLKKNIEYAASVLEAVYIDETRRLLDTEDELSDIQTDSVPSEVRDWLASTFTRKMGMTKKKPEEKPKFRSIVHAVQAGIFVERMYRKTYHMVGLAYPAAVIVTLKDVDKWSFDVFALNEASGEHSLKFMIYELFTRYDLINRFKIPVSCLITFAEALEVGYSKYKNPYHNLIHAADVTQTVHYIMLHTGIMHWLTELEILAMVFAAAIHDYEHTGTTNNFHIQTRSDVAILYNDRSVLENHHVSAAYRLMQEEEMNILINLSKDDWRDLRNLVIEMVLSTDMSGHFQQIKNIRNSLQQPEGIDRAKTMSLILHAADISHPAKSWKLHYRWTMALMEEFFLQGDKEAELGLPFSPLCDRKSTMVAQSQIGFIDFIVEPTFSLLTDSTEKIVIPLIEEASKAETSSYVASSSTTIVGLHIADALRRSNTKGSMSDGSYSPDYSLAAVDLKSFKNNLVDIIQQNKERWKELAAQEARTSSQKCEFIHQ
T3 sequence (O76083 1-533 isoform O76083-2): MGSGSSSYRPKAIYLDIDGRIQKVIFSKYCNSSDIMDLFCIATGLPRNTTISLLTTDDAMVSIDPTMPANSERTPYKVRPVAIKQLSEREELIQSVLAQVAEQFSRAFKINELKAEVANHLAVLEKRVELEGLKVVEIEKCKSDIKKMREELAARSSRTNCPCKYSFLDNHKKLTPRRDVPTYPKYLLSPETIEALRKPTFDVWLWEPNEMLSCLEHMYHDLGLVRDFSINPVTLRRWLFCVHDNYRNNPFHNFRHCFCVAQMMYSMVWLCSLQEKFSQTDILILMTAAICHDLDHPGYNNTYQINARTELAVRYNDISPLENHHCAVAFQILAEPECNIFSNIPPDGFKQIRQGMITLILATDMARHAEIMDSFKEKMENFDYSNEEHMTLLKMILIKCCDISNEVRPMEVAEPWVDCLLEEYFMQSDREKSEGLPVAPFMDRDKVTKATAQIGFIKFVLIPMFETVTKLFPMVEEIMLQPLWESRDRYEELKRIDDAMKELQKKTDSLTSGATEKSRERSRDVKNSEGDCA

Structure (SMILES)	PDE1A selectivity (versus PDE9A2) (PDE1A)	PDE1B selectivity (versus PDE9A2) (PDE1B)	pIC50 (PDE9A2)	Km (PDE9) [µM]
CC1CN(Cc2ccccc2)CC1c1nn2c(C3CCCOC3)ncc2c(=O)[nH]1 (single isomer, unassigned) [2-((3,4-trans)-1-benzyl-4-methylpyrrolidin-3-yl)-7-(tetrahyd] [2-((3,4-trans)-1-benzyl-4-methylpyrrolidin-3-yl)-7-(tetrahydro-2H-pyran-3-yl)imidazo[5,1-f][1,2,4]triazin-4(3H)-one]	28	38		
C[C@@H]1CN(Cc2cn3ncccc3n2)C[C@H]1c1nn2c(C3CCOCC3)ncc2c(=O)[nH]1 (single isomer, unassigned) [(+)-2-((3,4-trans)-1-(imidazo[1,2-b]pyridazin-2-ylmethyl)-4-] [(+)-2-((3,4-trans)-1-(imidazo[1,2-b]pyridazin-2-ylmethyl)-4-methylpyrrolidin-3-yl)-7-(tetrahydro-2H-pyran-4-yl)imidazo[5,1-f][1,2,4]triazin-4(3H)-one]	1005	1413		
C[C@@H]1CN(Cc2ccc3ccccc3n2)C[C@H]1c1nn2c(C3CCOCC3)ncc2c(=O)[nH]1 (single isomer, unassigned) [(+)-2-((3,4-trans)-4-methyl-1-(quinolin-2-ylmethyl)pyrrolidi] [(+)-2-((3,4-trans)-4-methyl-1-(quinolin-2-ylmethyl)pyrrolidin-3-yl)-7-(tetrahydro-2H-pyran-4-yl)imidazo[5,1-f][1,2,4]triazin-4(3H)-one]	621	1400		
C[C@@H]1CN(Cc2ccccc2C#N)C[C@H]1c1nn2c(C3CCOCC3)ncc2c(=O)[nH]1 (single isomer, unassigned) [(+)-2-(((3,4-trans)-3-methyl-4-(4-oxo-7-(tetrahydro-2H-pyran-4-yl)-3,4-dihydroimidazo[5,1-f][1,2,4]triazin-2-yl)pyrrolidin-1-yl)methyl)benzonitrile]	241	220	> 6.00	
C[C@@H]1CN(Cc2cccc(C#N)c2)C[C@H]1c1nn2c(C3CCOCC3)ncc2c(=O)[nH]1 (single isomer, unassigned) [(+)-3-(((3,4-trans)-3-methyl-4-(4-oxo-7-(tetrahydro-2H-pyran-4-yl)-3,4-dihydroimidazo[5,1-f][1,2,4]triazin-2-yl)pyrrolidin-1-yl)methyl)benzonitrile]	942	343	> 6.00	
C[C@@H]1CN(Cc2ccc(C#N)cc2)C[C@H]1c1nn2c(C3CCOCC3)ncc2c(=O)[nH]1 (single isomer, unassigned) [(−)-4-(((3,4-trans)-3-methyl-4-(4-oxo-7-(tetrahydro-2H-pyran-4-yl)-3,4-dihydroimidazo[5,1-f][1,2,4]triazin-2-yl)pyrrolidin-1-yl)methyl)benzonitrile]	640	1445	> 6.00	
Nc1nc2c(ncn2[C@@H]2O[C@@H]3COP(=O)(O)O[C@H]3[C@H]2O)c(=O)[nH]1 [cGMP, cyclic guanosine monophosphate]				~0.17
